Patent US9133207B2, “Tetrandrine derivatives with substituted 5-carbon, preparation method and use thereof” (Hangzhou Bensheng Pharmaceutical Co., Ltd., priority 2011, dated 2015)
In brackets after ≈: the same amount, converted by molar mass. One block for each compound: values may come before it.

Columns and labels:
[1] = system: H9 (acute lymphoblastic leukemia, ALL); assay: Leukemia cell growth inhibition, MTT, 72 h (Example 5); format: cell-based, human; details: 72 h, MTT; for IC50 / IC90: Homo sapiens
Description: (§1) Leukemia cell lines: leukemia cell lines: K562/adr (drug-resistant, chronic myeloid leukemia, CML), NB4 (acute promyelocytic leukemia, AML), Kasumi-1 (acute myeloid leukemia M2 type, AML-M2), Jurkat (acute lymphoblastic leukemia, ALL), all of which are donated by Cancer Research Institute of Zhejiang University, China; and H9 (acute lymphoblastic leukemia, ALL), which is purchased from China Center for Type Culture Collection.
(§2) Reagents: The standard sample of tetrandrine (TTD) is purchased from Ci Yuan Biotechnology Co., Ltd., Shaanxi, China; and the 5-substituted tetrandrine derivatives of the present invention.
(§3) Obtaining 6000 well-growing leukemia cells and inoculating them into wells of a 96-well cell culture plate. The culture medium is a 1640 cell culture medium containing 10% fetal bovine serum. After adding the tetrandrine derivatives of different concentrations and mixing uniformly, placing the plate in a carbon dioxide cell incubator (5% CO2) at 37° C. and incubating for 72 hours. Then the viable cell concentration is determined by the MTT method.

[2] = system: Jurkat (acute lymphoblastic leukemia, ALL); assay: as above; format: cell-based, human; details: 72 h, MTT; for IC50 / IC90: Homo sapiens, Jurkat
Description: as §1, §2, §3

[3] = system: K562/adr (drug-resistant, chronic myeloid leukemia, CML); assay: as above; format: cell-based, human; details: 72 h, MTT; for IC50 / IC90: Homo sapiens, K562/Adr
Description: as §1, §2, §3

[4] = system: Kasumi-1 (acute myeloid leukemia M2 type, AML-M2); assay: as above; format: cell-based, human; details: for IC50 / IC90: Homo sapiens, Kasumi 1
Description: as §1, §2, §3

[5] = system: RPMI8226 (multiple myeloma); assay: Multiple myeloma cell growth inhibition, MTT, 72 h (Example 6); format: cell-based, human; details: 72 h, MTT, RPMI8226; for IC50 / IC90: Homo sapiens, RPMI-8226
Method: Multiple myeloma and lymphoma cell lines: RPMI8226 (multiple myeloma), purchased from Fuxiang Bio-tech Co. Ltd., Shanghai, China.
(§4) Reagents: the same as in Example 5.
as §3, with “incubated” for “incubating”

[6] = system: CaES-17 (esophageal cancer cell); assay: Solid tumor cell growth inhibition, MTT, 72 h (Example 7); format: cell-based, human; details: 72 h, MTT, CAES-17; for IC50 / IC90: Homo sapiens, CaEs17
Method: (§5) Human solid tumor cell lines: Hep-2 (laryngeal carcinoma), A549 (human lung cancer), CaES-17 (esophageal cancer cell), PC-3 (prostate cancer), CNE (nasopharyngeal carcinoma cell) and SK-OV-3 (ovarian cancer cell), all of which are purchased from China Center For Type Culture Collection; RKO (human colon adenocarcinoma cell), MGC 803 (human gastric cancer cell), MG63 (osteosarcoma), and U87 MG (malignant glioma cell), all of which are purchased from Fuxiang Bio-tech Co. Ltd., Shanghai, China; PANC-1 (pancreatic cancer), Huh? (human liver cancer cell), Becap37 (human breast cancer cell), and Hela (human cervical cancer cell), all of which are donated by Cancer Research Institute of Zhejiang University, China.
as §4
(§6) Obtaining 4000 well-growing human solid tumor cells and inoculating them into wells of a 96-well cell culture plate. The culture medium is DMEM High Glucose cell culture medium containing 10% fetal bovine serum. The plate is placed in a carbon dioxide cell incubator (5% CO2) at 37° C. and incubated for 24 hours. After been added with tetrandrine derivatives of different concentration and mixing uniformly, the plate is placed in a carbon dioxide cell incubator (5% CO2) at 37° C. and incubated for 72 hours. Then the viable cell concentration is determined by the MTT method and the cell viability (%) after drug treatment is calculated. In this experiment, the cell viability of control group (not treated with any compound) is set as 100%.

[7] = system: MG63 (osteosarcoma); assay: as above; format: cell-based, human; details: 72 h, MTT, MG-63; for IC50 / IC90: Homo sapiens
Method: as §5, §4, §6

[8] = system: PANC-1 (pancreatic cancer); assay: as above; format: cell-based, human; details: 72 h, MTT, PANC-1; for IC50 / IC90: Homo sapiens
Method: as §5, §4, §6

[9] = system: PC-3 (prostate cancer); assay: as above; format: cell-based, human; details: 72 h, MTT, PC-3; for IC50 / IC90: Homo sapiens
Method: as §5, §4, §6

[10] = system: A549 (human lung cancer); assay: as above; format: cell-based; details: 72 h, MTT, A549; for IC50 / IC90: Homo sapiens
Method: as §5, §4, §6

[11] = system: Becap37 (human breast cancer cell); assay: as above; format: cell-based; details: 72 h, MTT, Becap-37; for IC50 / IC90: Homo sapiens
Method: as §5, §4, §6

[12] = system: Huh7 (human liver cancer cell); assay: as above; format: cell-based; details: 72 h, MTT, Huh-7; for IC50 / IC90: Homo sapiens
Method: as §5, §4, §6

[13] = system: MGC 803 (human gastric cancer cell); assay: as above; format: cell-based; details: for IC50 / IC90: Homo sapiens
Method: as §5, §4, §6

IC50 [1]: 2.99 µg/mL (≈ 3.95 µM) | IC90 [1]: 4.75 µg/mL (≈ 6.28 µM) | IC50 [2]: 3.39 µg/mL (≈ 4.48 µM) | IC90 [2]: 7.65 µg/mL (≈ 10.1 µM) | IC50 [3]: 0.67 µg/mL (≈ 0.885 µM) | IC90 [3]: 4.65 µg/mL (≈ 6.14 µM) | IC50 [4]: 3.19 µg/mL (≈ 4.21 µM) | IC90 [4]: 7.36 µg/mL (≈ 9.72 µM) | IC50 [5]: 0.27 µg/mL (≈ 0.357 µM) | IC90 [5]: 1.44 µg/mL (≈ 1.9 µM) | IC50 [6]: 2.4 µg/mL (≈ 3.17 µM) | IC90 [6]: 7.23 µg/mL (≈ 9.55 µM) | IC50 [7]: 2.76 µg/mL (≈ 3.65 µM) | IC90 [7]: 4.51 µg/mL (≈ 5.96 µM) | IC50 [8]: 5.68 µg/mL (≈ 7.5 µM) | IC90 [8]: 8.76 µg/mL (≈ 11.6 µM) | IC50 [9]: 6.38 µg/mL (≈ 8.43 µM) | IC90 [9]: 9 µg/mL (≈ 11.9 µM) | IC50 [10]: > 16 µg/mL | IC90 [10]: > 16 µg/mL | IC50 [11]: 2.85 µg/mL (≈ 3.77 µM) | IC90 [11]: 4.18 µg/mL (≈ 5.52 µM) | IC50 [12]: 2.4 µg/mL (≈ 3.17 µM) | IC90 [12]: 3.93 µg/mL (≈ 5.19 µM) | IC50 [13]: 2.45 µg/mL (≈ 3.24 µM) | IC90 [13]: 3.72 µg/mL (≈ 4.91 µM)
Structure (SMILES): COc1ccc2cc1Oc1ccc(cc1)C[C@H]1c3cc(c(OC)cc3CCN1C)Oc1c(OC)c(OC)c(COC(=O)c3ccccc3)c3c1[C@H](C2)N(C)CC3 [BS-TE-224]

H9 IC50 [1]: >16 µg/mL | H9 IC90 [1]: >16 µg/mL | Jurkat IC50 [2]: >16 µg/mL | Jurkat IC90 [2]: >16 µg/mL | K562/ADR IC50 [3]: 3.70 µg/mL | K562/ADR IC90 [3]: 11.11 µg/mL | Kasumi-1 IC50 [4]: 7.74 µg/mL | Kasumi-1 IC90 [4]: >16 µg/mL | RPMI8226 IC50 [5]: 1.95 µg/mL | RPMI8226 IC90 [5]: 8 µg/mL | CAES-17 IC50 [6]: 9.89 µg/mL | CAES-17 IC90 [6]: 30.16 µg/mL | MG-63 IC50 [7]: 9.93 µg/mL | MG-63 IC90 [7]: 26.11 µg/mL | PANC-1 IC50 [8]: >10 µg/mL | PANC-1 IC90 [8]: >10 µg/mL | PC-3 IC50 [9]: >10 µg/mL | PC-3 IC90 [9]: >10 µg/mL | A549 IC50 [10]: >16 µg/mL | A549 IC90 [10]: >16 µg/mL | Becap-37 IC50 [11]: 9.95 µg/mL | Becap-37 IC90 [11]: >10 µg/mL | Huh-7 IC50 [12]: 8.54 µg/mL | Huh-7 IC90 [12]: 15.09 µg/mL | MGC-803 IC50 [13]: 18.95 µg/mL | MGC-803 IC90 [13]: 64.43 µg/mL
Structure (SMILES): COc1ccc2cc1Oc1ccc(cc1)C[C@H]1c3cc(c(OC)cc3CCN1C)Oc1c(OC)c(OC)c(CO)c3c1[C@H](C2)N(C)CC3 [BS-TE-213]

IC50 [1]: 2.5 µg/mL (≈ 3.29 µM) | IC90 [1]: 3.99 µg/mL (≈ 5.24 µM) | IC50 [2]: 2.94 µg/mL (≈ 3.86 µM) | IC90 [2]: 6.94 µg/mL (≈ 9.12 µM) | IC50 [3]: 0.87 µg/mL (≈ 1.14 µM) | IC90 [3]: 2.78 µg/mL (≈ 3.65 µM) | IC50 [4]: 2.52 µg/mL (≈ 3.31 µM) | IC90 [4]: 8 µg/mL (≈ 10.5 µM) | IC50 [5]: 0.23 µg/mL (≈ 0.302 µM) | IC90 [5]: 1.13 µg/mL (≈ 1.49 µM) | IC50 [6]: 4.8 µg/mL (≈ 6.31 µM) | IC90 [6]: 14.9 µg/mL (≈ 19.6 µM) | IC50 [7]: 2.88 µg/mL (≈ 3.78 µM) | IC90 [7]: 9.84 µg/mL (≈ 12.9 µM) | IC50 [8]: 6 µg/mL (≈ 7.89 µM) | IC90 [8]: 9.9 µg/mL (≈ 13 µM) | IC50 [9]: 5.77 µg/mL (≈ 7.58 µM) | IC90 [9]: 9.09 µg/mL (≈ 11.9 µM) | IC50 [10]: 3.1 µg/mL (≈ 4.07 µM) | IC90 [10]: 7.05 µg/mL (≈ 9.27 µM) | IC50 [11]: 4.89 µg/mL (≈ 6.43 µM) | IC90 [11]: 36.6 µg/mL (≈ 48.1 µM) | IC50 [12]: 1.84 µg/mL (≈ 2.42 µM) | IC90 [12]: 3.51 µg/mL (≈ 4.61 µM) | IC50 [13]: 2.59 µg/mL (≈ 3.4 µM) | IC90 [13]: 3.97 µg/mL (≈ 5.22 µM)
Structure (SMILES): COc1ccc2cc1Oc1ccc(cc1)C[C@H]1c3cc(c(OC)cc3CCN1C)Oc1c(OC)c(OC)c(COCc3ccc(F)cc3)c3c1[C@H](C2)N(C)CC3 [BS-TE-408]

IC50 [1]: 4.4 µg/mL (≈ 6.6 µM) | IC90 [1]: 7.68 µg/mL (≈ 11.5 µM) | IC50 [2]: 5.21 µg/mL (≈ 7.81 µM) | IC90 [2]: 16 µg/mL (≈ 24 µM) | IC50 [3]: 0.82 µg/mL (≈ 1.23 µM) | IC90 [3]: 3.85 µg/mL (≈ 5.77 µM) | IC50 [4]: 2.16 µg/mL (≈ 3.24 µM) | IC90 [4]: 9.83 µg/mL (≈ 14.7 µM) | IC50 [5]: 0.29 µg/mL (≈ 0.435 µM) | IC90 [5]: 2.25 µg/mL (≈ 3.37 µM) | IC50 [6]: 4.72 µg/mL (≈ 7.08 µM) | IC90 [6]: 18.9 µg/mL (≈ 28.4 µM) | IC50 [7]: 2.72 µg/mL (≈ 4.08 µM) | IC90 [7]: 9.89 µg/mL (≈ 14.8 µM) | IC50 [8]: > 10 µg/mL | IC90 [8]: > 10 µg/mL | IC50 [9]: 5.68 µg/mL (≈ 8.52 µM) | IC90 [9]: 10.9 µg/mL (≈ 16.4 µM) | IC50 [10]: 4.41 µg/mL (≈ 6.61 µM) | IC90 [10]: 12.2 µg/mL (≈ 18.3 µM) | IC50 [11]: 5.6 µg/mL (≈ 8.4 µM) | IC90 [11]: 11.5 µg/mL (≈ 17.2 µM) | IC50 [12]: 4.22 µg/mL (≈ 6.33 µM) | IC90 [12]: 7.06 µg/mL (≈ 10.6 µM) | IC50 [13]: 5.01 µg/mL (≈ 7.51 µM) | IC90 [13]: 7.56 µg/mL (≈ 11.3 µM)
Structure (SMILES): COCc1c2c3c(c(OC)c1OC)Oc1cc4c(cc1OC)CCN(C)[C@H]4Cc1ccc(cc1)Oc1cc(ccc1OC)C[C@@H]3N(C)CC2 [BS-TE-420]
